Assay results from paper PMC4245160 (ACS Chemical Biology, 2014).

Molecular target: T1, mouse OR-I7 (Mus musculus, UniProt Q9QWU6)
T1 sequence (Q9QWU6 1-327): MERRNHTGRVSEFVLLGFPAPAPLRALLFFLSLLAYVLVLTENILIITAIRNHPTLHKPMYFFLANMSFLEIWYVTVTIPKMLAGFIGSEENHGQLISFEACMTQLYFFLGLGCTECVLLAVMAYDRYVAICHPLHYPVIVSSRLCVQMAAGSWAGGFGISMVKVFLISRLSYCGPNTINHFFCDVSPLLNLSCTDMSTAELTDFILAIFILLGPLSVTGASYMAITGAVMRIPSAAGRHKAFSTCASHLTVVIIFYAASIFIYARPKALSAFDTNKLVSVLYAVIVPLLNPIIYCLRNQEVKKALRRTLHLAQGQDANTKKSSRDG
Experiment: GloSensor cAMP assay in Hana3A cells expressing recombinant receptor
Format: cell-based

Compound	EC50
CCCCCCC(F)(F)C=O [compound 2, 2,2-difluorooctanal]	~10 µM
CCCCCCCC=O [compound 1, octanal]	~1.5 µM
